The record followed here is article PMC7037682, “Herb–Drug Interaction of Red Ginseng Extract and Ginsenoside Rc with Valsartan in Rats” (Molecules, 2020).

Read-outs that look alike come from different tables or passages of the source. Bounds are passed on as bounds.

The target of one series is T1, OAT3 (Homo sapiens, UniProt Q8TCC7).
T1 sequence (Q8TCC7 1-542): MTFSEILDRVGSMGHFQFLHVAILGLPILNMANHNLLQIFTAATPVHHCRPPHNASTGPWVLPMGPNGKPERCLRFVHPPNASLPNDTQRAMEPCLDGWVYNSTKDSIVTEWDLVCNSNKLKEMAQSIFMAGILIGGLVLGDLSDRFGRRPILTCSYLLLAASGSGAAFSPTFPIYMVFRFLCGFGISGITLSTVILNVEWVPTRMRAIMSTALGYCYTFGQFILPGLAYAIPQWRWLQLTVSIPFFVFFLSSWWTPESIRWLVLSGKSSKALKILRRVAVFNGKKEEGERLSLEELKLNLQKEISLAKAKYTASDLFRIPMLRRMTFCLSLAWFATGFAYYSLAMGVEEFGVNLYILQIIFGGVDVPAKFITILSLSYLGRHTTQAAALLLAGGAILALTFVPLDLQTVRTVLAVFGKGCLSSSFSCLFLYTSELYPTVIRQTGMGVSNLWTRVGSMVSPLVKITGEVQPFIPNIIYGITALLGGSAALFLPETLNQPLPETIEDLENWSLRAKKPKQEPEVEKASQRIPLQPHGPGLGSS
Kind of series: Inhibition of OAT3-mediated [3H]ES uptake in HEK293-OAT3 cells. As for the experimental part:
(§1) HEK293 cells overexpressing the OCT1, OCT2, OAT1, OAT3, OATP1B1, and OATP1B3 transporters (HEK293-OCT1, -OCT2, -OAT1, -OAT3, -OATP1B1, and -OATP1B3, respectively) and HEK293-mock cells (Corning Life Sciences; Woburn, MA, USA) were used and characterized as previously described.
(§2) HEK293 cells overexpressing drug transporters and HEK293-mock cells were seeded in poly-D-lysine-coated 96-well plates at a density of 10^5 cells/well and were cultured in DMEM supplemented with 10% FBS, 5 mM non-essential amino acids, and 2 mM sodium butyrate in a humidified atmosphere with 8% CO2 at 37 °C.
(§3) To examine the effects of ginsenosides and typical inhibitors on transporter activity, aliquots (100 μL) of HBSS containing the probe substrate and ginsenosides or typical inhibitors were added to the cells after aspirating pre-incubated HBSS. The concentrations and probe substrates were as follows: 0.1 μM [^3H]MPP^+ for OCT1 and OCT2, 0.1 μM [^3H]PAH for OAT1, 0.1 μM [^3H]ES for OAT3 and OATP1B1, and 0.1 μM [^3H]EG for OATP1B3. […] Then the uptake of probe substrates into HEK293-mock cells and HEK293-OCT1, -OCT2, -OAT1, -OAT3, -OATP1B1, and -OATP1B3 cells in the presence and absence of typical inhibitor or each ginsenoside with previously described concentration range was measured for 5 min. Immediately after placing the plates on ice, the cells were washed three times with 100 μL of ice-cold HBSS, followed by lysing with 50 μL of 10% SDS solution and mixing with 150 μL of Optiphase cocktail solution (Perkin Elmer Inc., Boston, MA, USA). The radioactivity of the probe substrates in the cells was determined using a liquid scintillation counter.
(§4) In the inhibition studies, the uptake rate of substrate by HEK293 cells overexpressing the respective transporters was used as the control (100%) and the uptake rate of substrates in the presence of typical inhibitors or ginsenosides expressed as a percentage of the control. The inhibition data were fitted to an inhibitory effect model using Sigma plot (version 10.0; Systat Software Inc., San Jose, CA, USA). IC50 value indicated the half-maximal inhibitory concentration of the inhibitor.

Another series addresses T2, OAT1 (Homo sapiens, UniProt Q4U2R8).
T2 sequence (Q4U2R8 1-563): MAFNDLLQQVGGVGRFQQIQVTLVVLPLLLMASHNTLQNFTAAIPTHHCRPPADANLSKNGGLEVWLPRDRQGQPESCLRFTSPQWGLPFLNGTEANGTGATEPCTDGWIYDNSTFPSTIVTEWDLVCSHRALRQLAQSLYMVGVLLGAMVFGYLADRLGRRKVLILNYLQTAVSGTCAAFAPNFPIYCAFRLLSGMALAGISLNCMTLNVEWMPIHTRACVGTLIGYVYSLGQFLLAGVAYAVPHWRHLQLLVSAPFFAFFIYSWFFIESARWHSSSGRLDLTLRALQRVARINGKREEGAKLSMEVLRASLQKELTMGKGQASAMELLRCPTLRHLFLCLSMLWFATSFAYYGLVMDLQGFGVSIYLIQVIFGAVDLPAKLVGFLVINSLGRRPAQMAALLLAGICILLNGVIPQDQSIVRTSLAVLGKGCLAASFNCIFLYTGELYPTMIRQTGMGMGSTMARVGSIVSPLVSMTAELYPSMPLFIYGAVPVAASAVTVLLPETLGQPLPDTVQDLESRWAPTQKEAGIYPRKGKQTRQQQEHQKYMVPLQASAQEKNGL
Kind of series: Inhibition of OAT1-mediated [3H]PAH uptake in HEK293-OAT1 cells. As for the experimental part: as §1, §2
Then the uptake of probe substrates into HEK293-mock cells and HEK293-OCT1, -OCT2, -OAT1, -OAT3, -OATP1B1, and -OATP1B3 cells in the presence and absence of typical inhibitor or each ginsenoside with previously described concentration range was measured for 5 min. Immediately after placing the plates on ice, the cells were washed three times with 100 μL of ice-cold HBSS, followed by lysing with 50 μL of 10% SDS solution and mixing with 150 μL of Optiphase cocktail solution (Perkin Elmer Inc., Boston, MA, USA). The radioactivity of the probe substrates in the cells was determined using a liquid scintillation counter.
as §4

A further series concerns the target T3, OATP1B1 (Homo sapiens, UniProt Q9Y6L6).
T3 sequence (Q9Y6L6 1-691): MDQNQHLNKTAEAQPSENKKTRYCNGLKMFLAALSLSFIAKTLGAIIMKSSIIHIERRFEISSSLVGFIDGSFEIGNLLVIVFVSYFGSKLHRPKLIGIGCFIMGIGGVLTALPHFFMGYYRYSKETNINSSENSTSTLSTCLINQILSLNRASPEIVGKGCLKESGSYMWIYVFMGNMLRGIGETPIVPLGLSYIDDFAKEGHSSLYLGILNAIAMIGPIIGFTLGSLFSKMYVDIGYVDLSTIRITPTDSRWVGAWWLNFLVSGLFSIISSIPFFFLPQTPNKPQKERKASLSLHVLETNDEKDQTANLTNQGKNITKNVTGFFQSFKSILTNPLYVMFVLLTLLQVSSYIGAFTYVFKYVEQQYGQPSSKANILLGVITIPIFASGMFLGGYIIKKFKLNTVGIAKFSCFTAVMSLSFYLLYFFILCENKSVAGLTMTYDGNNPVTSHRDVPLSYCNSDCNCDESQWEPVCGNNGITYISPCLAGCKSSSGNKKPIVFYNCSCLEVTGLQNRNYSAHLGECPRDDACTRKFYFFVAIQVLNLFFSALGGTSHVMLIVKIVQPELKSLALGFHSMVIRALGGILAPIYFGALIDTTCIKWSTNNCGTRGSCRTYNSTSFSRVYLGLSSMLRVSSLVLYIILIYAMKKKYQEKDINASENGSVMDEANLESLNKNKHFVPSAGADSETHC
Put plainly: Inhibition of OATP1B1-mediated [3H]estrone-3-sulfate uptake in HEK293-OATP1B1 cells. As for the experimental part:
as §1, §2, §3, §4

The mark [1] stands for this setting: HEK293-OATP1B1, 0.1 μM [3H]ES uptake, 5 min.

As a reminder, the IC50 is the concentration that gives 50% inhibition. Regarding `CC(C)=CCC[C@](C)(O)[C@H]1CC[C@]2(C)[C@@H]1[C@H](O)C[C@@H]1[C@@]3(C)CC[C@H](O)C(C)(C)[C@@H]3[C@@H](O)C[C@]12C` [PPT, protopanaxatriol], the IC50 on OAT3 (read-out: IC50 OAT3, HEK293-OAT3, 0.1 μM [3H]ES uptake, 5 min) was above 100 µM; on OAT1 (read-out: IC50 OAT1, HEK293-OAT1, 0.1 μM [3H]PAH uptake, 5 min) it was above 100 µM; on OATP1B1 (read-out: IC50 OATP1B1, HEK293-OATP1B1, 0.1 μM [3H]ES uptake, 5 min) it was above 100 µM. For the same compound, the “IC50 OATP1B1” value at OATP1B1 (setting [1]) is recorded as “did not inhibit”.

In the case of `CC(C)=CCC[C@](C)(O[C@@H]1O[C@H](CO)[C@@H](O)[C@H](O)[C@H]1O)[C@H]1CC[C@]2(C)[C@@H]1[C@H](O)C[C@@H]1[C@@]3(C)CC[C@H](O)C(C)(C)[C@@H]3[C@@H](O[C@@H]3O[C@H](CO)[C@@H](O)[C@H](O)[C@H]3O[C@@H]3O[C@@H](C)[C@H](O)[C@@H](O)[C@H]3O)C[C@]12C` [Re, ginsenoside Re], the IC50 at OAT3, against OAT1 and against OATP1B1 was above 100 µM throughout. Moreover, the “IC50 OATP1B1” value on OATP1B1 (setting [1]) is reported as “did not inhibit”.

Turning to `CC(C)=CCC[C@](C)(O[C@@H]1O[C@H](CO[C@@H]2O[C@H](CO)[C@@H](O)[C@H](O)[C@H]2O)[C@@H](O)[C@H](O)[C@H]1O)[C@H]1CC[C@]2(C)[C@@H]1[C@H](O)C[C@@H]1[C@@]3(C)CC[C@H](O[C@@H]4O[C@H](CO)[C@@H](O)[C@H](O)[C@H]4O[C@@H]4O[C@H](CO)[C@@H](O)[C@H](O)[C@H]4O)C(C)(C)[C@@H]3CC[C@]12C` [Rb1, ginsenoside Rb1], the IC50 was above 100 µM against OAT3, above 100 µM against OAT1 and 68.2 µM against OATP1B1.
